Data on 38 compounds can be found in PMC6728359, “Crystal structure and chemical inhibition of essential schistosome host-interactive virulence factor carbonic anhydrase SmCA” (Communications Biology, 2019).

Read-outs that look alike come from different tables or passages of the source.

As usually defined, the Ki is a dissociation constant, usually derived from enzyme kinetics or from competition with a known ligand.

Assay [1] has as its target rSmCA (recombinant SmCA, α-carbonic anhydrase) (Schistosoma mansoni, UniProt A0A3Q0KSG2). The assay is described as follows: biochemical. Type of assay: biochemical.
Assay [2] has as its target recombinant human isoform hCA I. The note with it: cited from earlier work.
The target in assay [3] is recombinant human isoform hCA II. The note with it: cited from earlier work.

Chain of rSmCA (recombinant SmCA, α-carbonic anhydrase) (A0A3Q0KSG2 21-298 limits assumed): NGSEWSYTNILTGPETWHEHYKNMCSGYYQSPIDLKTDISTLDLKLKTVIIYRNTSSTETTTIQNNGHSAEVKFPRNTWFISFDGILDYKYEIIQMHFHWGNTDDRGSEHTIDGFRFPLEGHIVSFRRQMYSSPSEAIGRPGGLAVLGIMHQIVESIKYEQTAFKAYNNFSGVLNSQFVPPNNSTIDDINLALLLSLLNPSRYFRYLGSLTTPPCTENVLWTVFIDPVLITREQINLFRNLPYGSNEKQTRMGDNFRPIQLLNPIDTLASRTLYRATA

`[O-][Cl+3]([O-])([O-])O` [ClO4^−, perchlorate]: the inhibition constant Ki in assay [1] (read-out: Ki SmCA) was above 100 mM. Regarding CS3^2−, the results for the Ki in assay [1] (read-out: Ki SmCA) and in assay [2] were 6.16 mM and 0.0087 mM, respectively. For the compound `O=[Se](=O)(O)O` [SeO4^2−], the Ki in assay [1] (read-out: Ki SmCA) was 6.33 mM. In the case of `NS(=O)(=O)c1nnc(NS(=O)(=O)c2ccccc2)s1` [BZA, benzolamide], the inhibition constant Ki in assay [1] was found to be 3.41e-05 mM. Turning to `NS(N)(=O)=O` [H 2 NSO 2 NH 2, sulfamide], in assay [1], the “greater potency over SmCA versus hCA I” value came to 44 fold and the “greater potency over SmCA versus hCA II” value was determined as 161 fold. In assay [1] (read-out: Ki SmCA), the Ki stood at 0.007 mM. Regarding CF3SO3^−, the Ki in assay [1] (read-out: Ki SmCA) was 5.62 mM. `CCN[C@H]1CN(CCCOC)S(=O)(=O)c2sc(S(N)(=O)=O)cc21` [BRZ, brinzolamide]: the Ki in assay [1] amounted to 4.66e-05 mM. For `N#CO` [CNO^−, cyanate], the Ki in assay [1] (read-out: Ki SmCA) is 4.18 mM. As to `CCN(CC)C(=S)S` [Et2NCS2^−], the inhibitory constant (Ki) in assay [1] (read-out: Ki SmCA) was 0.59 mM; in assay [3], 0.0031 mM; in assay [2] it was 0.0008 mM. For `F` [F^−, fluoride], in assay [1] (read-out: Ki SmCA), the inhibitory constant (Ki) is 6.44 mM. As to `N#C[SeH]` [SeCN^−], the Ki in assay [1] (read-out: Ki SmCA) is 2.16 mM; in assay [2] it was 0.085 mM. Regarding `[O]=[Sn]([OH])[OH]` [SnO3^2−], the Ki in assay [1] (read-out: Ki SmCA) amounted to 4.11 mM.

As for S2O8^2−, the Ki in assay [1] (read-out: Ki SmCA) was 7.85 mM. Consider `O=S(O)O` [HSO3^−], for which the inhibitory constant (Ki) in assay [1] (read-out: Ki SmCA) was above 100 mM; in assay [2], 18 mM. With `O=C1NS(=O)(=O)c2ccccc21` [SAC, saccharin], the Ki in assay [1] was above 0.05 mM; in assay [2] (read-out: Ki hCAI), 0.0185 mM. Turning to `CC(=O)/N=c1/sc(S(N)(=O)=O)nn1C` [MZA, methazolamide], the Ki in assay [1] amounted to 3.89e-05 mM. For `O=[As](O)(O)c1ccccc1` [Ph-AsO 3 H 2, phenylarsonic acid], the Ki was 49.2 mM in assay [3] and 31.7 mM in assay [2]. For `N#CS` [SCN−, thiocyanate], the Ki in assay [1] (read-out: Ki SmCA) stood at 3.15 mM. On to `NS(=O)(=O)c1cc2c(cc1Cl)NCNS2(=O)=O` [HCT, hydrochlorothiazide], for which, in assay [1], the inhibition constant Ki is 0.000399 mM. With OsO5^2−, in assay [1] (read-out: Ki SmCA), the Ki was determined as 7.55 mM. Turning to `S` [HS^−, hydrosulfide], the Ki in assay [1] (read-out: Ki SmCA) is 5.96 mM; in assay [2] it was 0.0006 mM. Turning to `O=S(=O)(O)F` [FSO3^−], in assay [1] (read-out: Ki SmCA), the Ki was 6.02 mM. For the compound `O=[Te](=O)(O)O` [TeO4^2−], the inhibition constant (Ki) was above 100 mM in assay [1] (read-out: Ki SmCA) and 0.66 mM in assay [2]. As for `O=C(O)O` [HCO3−], the Ki in assay [1] (read-out: Ki SmCA) was 5.1 mM. As for `O=[N+]([O-])O` [NO3−, nitrate], the Ki was 7.87 mM in assay [1] (read-out: Ki SmCA) and 7 mM in assay [2].

For `NS(=O)(=O)c1ccc(N2CCCCS2(=O)=O)cc1` [SLT, sulthiame], in assay [1], the inhibition constant Ki is 0.00356 mM. `NS(=O)(=O)c1ccc(S(=O)(=O)Nc2cccc3c(Cl)c[nH]c23)cc1` [IND, indisulam]: the Ki in assay [1] was 3.65e-05 mM. Take SO4^2−: the Ki in assay [1] (read-out: Ki SmCA) was determined as 6.86 mM. As for `[O]=[Re](=[O])(=[O])[OH]` [ReO4^−], the inhibition constant Ki in assay [1] (read-out: Ki SmCA) was found to be 8.75 mM. On to `[N-]=[N+]=[N-]` [N3^−, azide], for which, in assay [1] (read-out: Ki SmCA), the Ki turned out to be 2.43 mM. The same measure, in the same setting: as for `[O]=[Ru](=[O])(=[O])=[O]` [RuO4^−], the figure is 2.07 mM. Consider `[Br-].[K+]` [Br−, bromide], for which the values for the Ki in assay [1] (read-out: Ki SmCA), in assay [3] and in assay [2] were 9.35 mM, 63 mM and 4 mM, respectively.

With `CC1(C)O[C@@H]2[C@@H](CO[C@@]3(COS(N)(=O)=O)OC(C)(C)O[C@@H]23)O1` [TPM, topiramate], the figures for the inhibition constant (Ki) in assay [1] and in assay [3] (read-out: Ki hCAII) were 0.000568 mM and 1e-05 mM, respectively.

Consider `Cc1onc(-c2ccccc2)c1-c1ccc(S(N)(=O)=O)cc1` [VLX, valdecoxib], for which the inhibitory constant (Ki) in assay [1] came out at 0.000431 mM.

On to `I` [I^−, iodide], for which the inhibition constant Ki is 5.11 mM in assay [1] (read-out: Ki SmCA) and 0.3 mM in assay [2]. As to P2O7^4−, the inhibition constant (Ki) in assay [1] (read-out: Ki SmCA) was above 100 mM; in assay [2] it was 25.8 mM. In the case of `NS(=O)(=O)Cc1noc2ccccc12` [ZNS, zonisamide], the Ki in assay [1] was found to be 0.000937 mM. For `OB(O)c1ccccc1` [Ph-B(OH) 2, phenylboronic acid], in assay [1], the Ki was 0.02 mM and the “higher affinity for SmCA versus human isoforms hCA I or hCA II” value was above 1000 fold. Also, the Ki in assay [2] was 58.6 mM.
